Reference: paper PMC3898461 (Biochemistry, 2013)

Target: MurQ-EC (MurNAc 6P hydrolase from Escherichia coli) (Escherichia coli, UniProt P76535)
Test: coupled spectrophotometric assay of D-lactate release
Type: biochemical

Sequence of MurQ-EC (MurNAc 6P hydrolase from Escherichia coli) (P76535 whole entry): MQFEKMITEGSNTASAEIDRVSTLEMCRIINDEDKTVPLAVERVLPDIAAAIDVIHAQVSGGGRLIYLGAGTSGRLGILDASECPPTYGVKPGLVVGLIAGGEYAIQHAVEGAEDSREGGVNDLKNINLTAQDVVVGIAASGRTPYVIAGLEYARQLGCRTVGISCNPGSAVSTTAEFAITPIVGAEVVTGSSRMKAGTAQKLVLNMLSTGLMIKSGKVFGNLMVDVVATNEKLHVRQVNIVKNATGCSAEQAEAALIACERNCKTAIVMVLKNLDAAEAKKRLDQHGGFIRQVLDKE

CC(=O)N[C@@H](CO)[C@@H](O)[C@H](O)[C@H](O)COP(=O)(O)O [compound 1] was tested, and the Ki was 1100 ± 300 µM.
Molecule CC(=O)N[C@@H](CO)[C@@H](O[C@H](C)C(=O)O)[C@H](O)[C@H](O)COP(=O)(O)O [compound 2] has a Ki of 230 ± 20 µM.
